Results published in PubChem BioAssay (NCI).
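Interpolation was linear, between the two tested concentrations surrounding the appropriate level; five concentrations were tested over 48 hours in 96-well plates. Definition used: TGI = concentration required for complete inhibition of growth.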

Columns and labels:
Assay in all cases: NCI tumour cell line growth inhibition, 48 h
[1] = test system: MDA-N
[2] = test system: LOX IMVI melanoma
[3] = test system: NCI-H226 lung
[4] = test system: SNB-19 CNS
[5] = test system: SNB-75 CNS
[6] = test system: SF-539 CNS
[7] = test system: UACC-257 melanoma
[8] = test system: RXF 393 renal
[9] = test system: HCC-2998 colon
[10] = test system: SK-OV-3 ovarian
[11] = test system: SN12C renal

| SMILES | TGI [1] [µM] | TGI [2] [µM] | TGI [3] [µM] | TGI [4] [µM] | TGI [5] [µM] | TGI [6] [µM] | TGI [7] [µM] | TGI [8] [µM] | TGI [9] [µM] | TGI [10] [µM] | TGI [11] [µM] |
| --- | --- | --- | --- | --- | --- | --- | --- | --- | --- | --- | --- |
| CCOC(=O)c1csc(NC(=O)CCN2CCN(C)CC2)n1 | > 100 | > 100 | > 100 | > 100 | > 100 | > 100 | > 100 | > 100 | > 100 | > 100 | – |
| Cc1ccc(C)c(COCCOCn2cc(N3CCOCC3)c(=O)[nH]c2=O)c1 | > 100 | > 100 | > 100 | > 100 | > 100 | > 100 | > 100 | > 100 | > 100 | > 100 | > 100 |
| CC/C=N\N1C(N)=C(C#N)C(C#N)(C#N)C1CC (stereo not drawn) | > 100 | > 100 | > 100 | > 100 | > 100 | 80.8 | > 100 | > 100 | > 100 | > 100 | > 100 |
| CCOC(=O)/C=C/CCC(C)(C)COC(C)=O | > 10 | > 10 | > 10 | > 10 | > 10 | > 10 | > 10 | > 10 | > 10 | > 10 | > 10 |
| CCOC(=O)c1csc(NC(=O)CCN2CCCC2)n1 | > 100 | > 100 | > 100 | > 100 | > 100 | > 100 | > 100 | > 100 | > 100 | > 100 | – |
| NC(=O)c1ccc[n+](C2=C([O-])c3ccccc3C(=O)/C2=N\S(=O)(=O)c2ccccc2)c1 | 31 | 29.5 | 28.9 | 29.9 | 28.1 | 32.2 | 27.7 | 29.5 | 22.6 | > 100 | 30.9 |
| CC1=NN2C(=N)/C(=C/c3ccc(F)cc3)C(=O)N=C2S1 | > 100 | > 100 | > 100 | > 100 | > 100 | > 100 | > 100 | > 100 | > 100 | > 100 | > 100 |
| O=C(Nc1nn(C(=O)c2cccnc2)c(=O)s1)c1ccc(Cl)cc1 | > 100 | > 100 | 77.2 | > 100 | 82.2 | 95.4 | > 100 | 93.8 | > 100 | > 100 | > 100 |
| N#CCCN(CCC#N)c1ccc(C(N=Nc2ccccc2)=Nc2ccc(F)cc2)cc1 | > 100 | – | > 100 | > 100 | > 100 | > 100 | > 100 | > 100 | > 100 | > 100 | > 100 |
| COc1cc2c(cc1OCc1ccccc1)NC(=O)[C@@H]1CCCN1C2=O | > 100 | > 100 | > 100 | > 100 | > 100 | > 100 | > 100 | > 100 | > 100 | > 100 | > 100 |
| CC1=C(C)SC(=C2Sc3c(n(C)c(=O)n(C)c3=O)S2)S1 | > 100 | > 100 | 48.5 | > 100 | 52.3 | 26.8 | > 100 | > 100 | > 100 | 33.5 | > 100 |
| CC(=N/NC(=S)N(C)C)/C(=N\NC(=S)N(C)C)c1ccccc1 | 8.58 | > 100 | 3.13 | 6.85 | 4.62 | 25.8 | 4.19 | 2.95 | 2.99 | 3.53 | 3.24 |
| CSc1nc(Cl)c2c(n1)Sc1nc3ccccc3n1C2O (stereo not drawn) | > 100 | 3.9 | 95 | 97.1 | > 82.2 | 3.8 | > 100 | 20.8 | 13.6 | > 100 | > 100 |
| OC(CC(O)(C(F)(F)Cl)C(F)(F)Cl)c1ccccc1 (stereo not drawn) | > 10 | > 10 | > 10 | > 10 | > 10 | > 10 | > 10 | > 10 | > 10 | > 10 | > 10 |
| CN(C)/N=N/c1nc2c(c(=O)n(C)c(=O)n2C)n1CC1CO1 (stereo not drawn) | 46.7 | 23.7 | 38.3 | 78.2 | 43.6 | 22.5 | 43.9 | 15.8 | 25.3 | 61.7 | 46.7 |
| C[C@H]1[C@H](C)CC[C@]2(C(=O)OC3OC(CO)C(O)C(O)C3O)CC[C@]3(C)C(=CC[C@@H]4[C@@]5(C)C[C@@H](O)[C@@H]6OC(=O)c7cc(O)c(O)c(O)c7-c7c(cc(O)c(O)c7O)C(=O)OC[C@@]6(CO)[C@@H]5CC[C@]43C)[C@H]12 (stereo partly drawn) | 51.4 | 35.9 | > 100 | > 100 | > 100 | > 100 | > 100 | > 100 | > 100 | > 100 | > 100 |
| O=C1C=CC(=O)c2c(O)c(N3CCC[C@@H]3CO)c(Cl)c(O)c21 | 3.15 | 3.16 | 3.16 | 3.09 | 3.12 | 3.42 | 3.28 | 2.98 | 3.49 | 7.78 | 3.25 |
| Cc1nc2c(=O)n(-c3ccccc3)c(=O)n(-c3ccccc3)c2o1 | > 100 | > 100 | > 100 | > 100 | > 100 | > 100 | > 100 | > 100 | > 100 | > 100 | > 100 |

| SMILES | TGI [1] [µM] | TGI [2] [µM] | TGI [3] [µM] | TGI [4] [µM] | TGI [5] [µM] | TGI [6] [µM] | TGI [7] [µM] | TGI [8] [µM] | TGI [9] [µM] | TGI [10] [µM] | TGI [11] [µM] |
| --- | --- | --- | --- | --- | --- | --- | --- | --- | --- | --- | --- |
| CC(C)=CCC[C@@H](C)C1=C(Nc2ccccc2F)C(O)=C(C)C(=O)C1=O | > 100 | > 100 | 24 | > 100 | > 100 | 59.8 | > 100 | > 64.1 | 38.1 | 73.3 | > 100 |
| C[As+](C)(c1ccc(Br)c([N+](=O)[O-])c1)c1ccc(Br)c([N+](=O)[O-])c1.O=[N+]([O-])O | > 100 | > 100 | > 100 | > 100 | > 100 | > 100 | > 100 | > 100 | > 100 | > 100 | > 100 |
| Nc1c(N2CCOCC2)c(=O)nc2[nH]/c(=C\c3ccccc3O)c(=O)n12 | > 100 | > 100 | > 100 | > 100 | > 100 | > 100 | > 100 | > 100 | > 100 | > 100 | > 100 |
| Cc1c(C(=O)NNc2ccccc2)n2c(=S)[nH]nc2c2ccccc12 | > 100 | > 100 | > 100 | > 100 | > 100 | > 100 | > 100 | > 100 | > 100 | > 100 | > 100 |
| CCN(CC)C(=S)N/N=C(/c1ccccc1)c1ccccn1 | 26.1 | > 35.8 | 7.65 | > 100 | 7.59 | 4.24 | 2.56 | 8.63 | 37 | 38.6 | 1.35 |
| CCn1ncc2c(=O)n3ncn(-c4ccc(Br)cc4)c3nc21 | > 100 | – | > 100 | > 100 | > 100 | – | > 100 | > 100 | > 100 | > 100 | > 100 |
| COc1ccc2c(c1OC)C(=O)N1C2=Cc2c(cc3c(c2OC)OCO3)CC1N(C)C (stereo not drawn) | > 100 | – | > 100 | > 100 | > 100 | > 100 | > 100 | > 100 | > 100 | > 100 | > 100 |
| O=C([C@H](O)[C@@H](O)c1cccc(Cl)c1)C12CC3CC(CC(C3)C1)C2 | 5.92 | 2.65 | 12.3 | 4.07 | 3.7 | 3.61 | 4.8 | 3.98 | 4.15 | 22.8 | 3.95 |
| c1ccc2c(c1)cc1ccc3cccc4ccc2c1c34 | > 100 | > 100 | > 100 | > 100 | > 100 | > 100 | > 100 | > 100 | > 100 | > 100 | > 100 |
| COc1ccc([C@]23CCC4(OCC(C)(C)CO4)[C@H]4CON(O[C@H](O[C@@H]5CCCCC5C(C)(C)c5ccccc5)C2)[C@@H]43)cc1OC (stereo partly drawn) | > 100 | > 100 | > 100 | > 100 | > 100 | 76.5 | > 100 | > 100 | > 100 | > 100 | > 100 |
| CCc1nc2c(c(N(C)C)c1C(=O)OC)CCc1ccccc1-2 | 81.5 | > 100 | 79 | > 100 | > 100 | > 100 | 68.9 | 73.8 | 67.5 | 51.4 | > 100 |
| Clc1ccc(/C(=C/c2ccccc2)Cn2ccnc2)cc1 | 46.6 | 91.1 | > 100 | > 100 | > 100 | 80.9 | > 100 | 50.7 | > 100 | > 100 | > 100 |
| O=c1c2c3c(sc2nc2n1N=C(c1ccc(Br)cc1)CS2)CCCC3 | > 100 | > 100 | > 100 | > 100 | > 100 | > 100 | > 100 | > 100 | > 100 | > 100 | > 100 |
| CC1=C(C(=O)OCCO[N+](=O)[O-])C(c2ccccc2[N+](=O)[O-])C(C(=O)OC(C)C)=C(C)N1 (stereo not drawn) | 31.1 | 32.3 | 35 | 39.6 | – | 33.2 | 28.7 | 30.3 | 29.5 | 39.8 | 34.9 |
| CCC1(CC)C(=O)N(C(=O)c2cc(OC)c(OC)c(OC)c2)N(C(=O)c2cc(OC)c(OC)c(OC)c2)C1=O | > 50 | > 50 | > 50 | > 50 | > 50 | > 50 | > 50 | > 50 | > 50 | > 50 | > 50 |
| O=c1c2cc([N+](=O)[O-])ccc2oc2nc3n(c(=O)c12)CCCS3 | > 100 | – | > 100 | > 100 | > 100 | > 100 | > 100 | > 100 | > 100 | > 100 | > 100 |
| CCOC(=O)[C@@H](Cc1ccc(CCl)cc1)NC(C)=O | 40.2 | 37 | 98.5 | 79.2 | 59 | 36.4 | 40.2 | 30.3 | 40.4 | > 100 | 49.6 |
| NC(=O)NN=C1Cc2ccccc2C1 | > 100 | > 100 | > 100 | > 100 | > 100 | > 100 | > 100 | > 100 | > 100 | > 100 | > 100 |
